Broadly, the Ki is a measure of affinity in units of concentration, obtained from inhibition or displacement.

These results are taken from ChEMBL document CHEMBL3576793, “Restoration of Chemosensitivity in P-Glycoprotein-Dependent Multidrug-Resistant Cells by Dihydro-β-agarofuran Sesquiterpenes from Celastrus vulcanicola” (J Nat Prod, 2015).

The target in series [1] is T1, ATP-dependent translocase ABCB1 (Homo sapiens, UniProt P08183). In words: Inhibition of human MDR1 transfected in mouse NIH/3T3 MDR1-G185 cells assessed as […] daunomycin accumulation after 30 mins by flow cytometry. Type of series: cell-based. Background: In flow cytometry, cells or beads pass a laser one at a time.
Series [2] can be described thus: Cytotoxicity against mouse NIH/3T3 cells assessed as cell growth at 10 uM after 24 hrs by MTT assay. The format is cell-based, NIH3T3. The following applies: read-out: Activity. For orientation: Tetrazolium dyes change colour on reduction, which living cells bring about.
A short description of series [3]: Cytotoxicity against human MDR1 transfected mouse NIH/3T3 MDR1-G185 cells assessed as cell growth at 10 uM after 24 hrs by MTT assay. The following applies: mouse NIH/3T3 MDR1-G185 cells transfected with human MDR1, read-out: Activity. The format is ADME, cell-based, NIH3T3.
Series [4] concerns the target T1, ATP-dependent translocase ABCB1. In words: Inhibition of human MDR1 transfected in mouse NIH/3T3 MDR1-G185 cells assessed as daunomycin accumulation at 10 uM after 30 mins by flow cytometry (reference value: 13.2 +/- 1.1%). Type of series: cell-based. Set-up: scale not given: the % may be the effect or the level left. The following applies: nih/3t3 mdr1-g185, 0.5 h.

T1 sequence (P08183 whole entry): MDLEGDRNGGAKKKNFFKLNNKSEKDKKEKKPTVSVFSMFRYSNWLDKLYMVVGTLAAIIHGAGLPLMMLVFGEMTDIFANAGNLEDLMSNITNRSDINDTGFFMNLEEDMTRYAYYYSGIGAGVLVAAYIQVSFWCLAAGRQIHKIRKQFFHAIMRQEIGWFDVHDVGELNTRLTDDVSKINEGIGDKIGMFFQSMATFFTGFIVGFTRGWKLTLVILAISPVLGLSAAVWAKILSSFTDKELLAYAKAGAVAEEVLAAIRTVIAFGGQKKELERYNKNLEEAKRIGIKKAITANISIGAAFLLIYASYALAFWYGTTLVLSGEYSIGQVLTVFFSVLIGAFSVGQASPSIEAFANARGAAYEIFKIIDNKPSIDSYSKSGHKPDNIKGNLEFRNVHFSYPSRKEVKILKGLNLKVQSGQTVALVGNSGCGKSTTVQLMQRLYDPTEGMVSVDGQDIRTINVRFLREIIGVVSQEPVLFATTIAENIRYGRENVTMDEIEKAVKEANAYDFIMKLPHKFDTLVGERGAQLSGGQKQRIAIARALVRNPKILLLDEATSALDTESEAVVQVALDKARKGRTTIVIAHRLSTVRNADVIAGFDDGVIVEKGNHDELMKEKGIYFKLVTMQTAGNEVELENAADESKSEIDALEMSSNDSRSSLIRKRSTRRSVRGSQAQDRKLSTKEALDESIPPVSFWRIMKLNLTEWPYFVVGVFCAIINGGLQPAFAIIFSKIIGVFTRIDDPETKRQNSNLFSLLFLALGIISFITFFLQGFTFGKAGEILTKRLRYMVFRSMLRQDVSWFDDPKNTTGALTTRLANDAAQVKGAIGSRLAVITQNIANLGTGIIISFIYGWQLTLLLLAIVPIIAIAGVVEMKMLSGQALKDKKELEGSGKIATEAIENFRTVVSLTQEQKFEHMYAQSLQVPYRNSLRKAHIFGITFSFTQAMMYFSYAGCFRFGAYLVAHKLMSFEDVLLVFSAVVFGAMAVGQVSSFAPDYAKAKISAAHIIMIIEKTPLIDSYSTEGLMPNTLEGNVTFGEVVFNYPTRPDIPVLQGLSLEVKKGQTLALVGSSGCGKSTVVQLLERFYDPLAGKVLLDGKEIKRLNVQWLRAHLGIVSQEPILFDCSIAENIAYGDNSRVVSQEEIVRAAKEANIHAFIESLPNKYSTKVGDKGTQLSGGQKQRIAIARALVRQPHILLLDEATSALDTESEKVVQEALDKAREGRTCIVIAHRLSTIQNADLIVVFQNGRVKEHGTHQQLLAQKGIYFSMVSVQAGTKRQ

`CC(=O)O[C@H]1CC[C@](C)(O)[C@]23OC(C)(C)[C@H]([C@H](OC(=O)/C=C\c4ccccc4)[C@H](OC(=O)c4ccccc4)[C@]12C)[C@H]3OC(C)=O`: in series [1], the Ki amounted to 610 nM. Moreover, the viability at 24 h, 10 µM in series [2] amounted to 51.4%; in series [3], 64.3%. Moreover, the Activity in series [4] is 82.2%.
As to `CC(=O)O[C@@H]1[C@@H]2[C@@H](OC(=O)c3ccccc3)[C@@]3(OC2(C)C)[C@](C)([C@@H]1OC(=O)c1ccccc1)[C@@H](OC(C)=O)[C@@H](O)C[C@]3(C)O`, the Activity in series [4] turned out to be 73.2%.
For the compound `COc1ccc(CCN(C)CCCC(C#N)(c2ccc(OC)c(OC)c2)C(C)C)cc1OC` (configuration not stated), the viability at 24 h, 10 µM in series [3] amounted to 80.8%. The Activity in series [4] is 60.3%.
In the case of `CC(=O)OC[C@]12[C@@H](OC(=O)c3ccccc3)[C@@H](OC(C)=O)[C@@H]3[C@@H](OC(C)=O)[C@]1(OC3(C)C)[C@@](C)(O)C[C@H](OC(=O)c1ccccc1)[C@@H]2OC(C)=O`, the Activity in series [4] came to 73.8%.
Regarding `CC(=O)O[C@H]1[C@@H](OC(=O)c2ccccc2)C[C@@H](C)[C@]23OC(C)(C)[C@H](C[C@H](OC(=O)c4ccccc4)[C@]12C)[C@H]3OC(=O)c1cccnc1`, the Ki in series [1] was 290 nM. In addition, the viability at 24 h, 10 µM is 75.4% in series [2] and 70.2% in series [3]. For the same compound, in series [4], the Activity is given as 80.1%.
In the case of `CC(=O)OC[C@]12[C@@H](OC(=O)c3ccccc3)[C@@H](OC(C)=O)[C@@H]3C[C@]1(OC3(C)C)[C@H](C)C[C@H](OC(C)=O)[C@@H]2OC(C)=O`, the Activity in series [4] came out at 68.2%.
As to `CC(=O)O[C@H]1C[C@](C)(O)[C@]23OC(C)(C)[C@H]([C@H](OC(=O)/C=C/c4ccccc4)[C@H](OC(=O)c4ccccc4)[C@]2(C)[C@H]1OC(C)=O)[C@H]3O`, in series [1], the Ki stood at 420 nM. The values for the viability at 24 h, 10 µM in series [2] and in series [3] were 69% and 78.4%, respectively. The Activity in series [4] is 85.1%.
Taken in the same sequence, the figures for `CC(=O)OC[C@]12[C@@H](OC(=O)c3ccccc3)[C@@H](OC(C)=O)[C@@H]3[C@@H](OC(=O)c4ccccc4)[C@]1(OC3(C)C)[C@@](C)(O)C[C@H](OC(C)=O)[C@@H]2OC(C)=O` were 780 nM, 64.4%, 71.4% and 79.7%.
As to `CC(=O)OC[C@@]12[C@@H](OC(C)=O)CC[C@](C)(O)[C@]13OC(C)(C)[C@H](C[C@@H]2OC(=O)c1ccccc1)[C@H]3OC(C)=O`, the Activity in series [4] came to 72.4%.
The same measure, in the same setting: the figure for `CC(=O)OC[C@]12[C@@H](OC(=O)c3ccccc3)[C@@H](OC(C)=O)[C@@H]3[C@@H](OC(C)=O)[C@]1(OC3(C)C)[C@@](C)(O)C[C@H](OC(C)=O)[C@@H]2OC(C)=O` is 69.9%.
Still for that read-out and setting: the figure for `CC(=O)O[C@H]1[C@@H](OC(=O)c2ccccc2)[C@]2(C)[C@@H](O)[C@@H](OC(C)=O)C[C@](C)(O)[C@@]23C[C@@H]1C(C)(C)O3` is 37%; for `CC(=O)O[C@H]1[C@@H]2[C@@H](OC(=O)c3ccccc3)[C@@]3(OC2(C)C)[C@@](C)([C@@H](O)[C@@H](OC(C)=O)C[C@]3(C)O)[C@H]1OC(=O)c1ccccc1` it is 73.1%; for `CC(=O)OC[C@]12[C@@H](OC(=O)c3ccccc3)C[C@@H]3[C@@H](OC(C)=O)[C@]1(OC3(C)C)[C@@](C)(O)C[C@H](OC(=O)c1ccccc1)[C@@H]2OC(C)=O` it is 73.6%.
On the same count and under the same terms, the figure for `CC(=O)OC[C@]12[C@@H](OC(=O)c3ccccc3)[C@@H](O)[C@@H]3[C@@H](OC(C)=O)[C@]1(OC3(C)C)[C@@](C)(O)C[C@H](OC(=O)c1ccccc1)[C@@H]2OC(C)=O` is 73.2%.
